Results on 20 compounds are retold here after ChEMBL document CHEMBL1147043, “Comparative metabolism of radiolabeled muraglitazar in animals and humans by quantitative and qualitative metabolite profiling” (Drug Metab Dispos, 2007).

Series [1] addresses T1, Peroxisome proliferator-activated receptor alpha (Homo sapiens) (UniProt Q07869).
T1 sequence (whole entry): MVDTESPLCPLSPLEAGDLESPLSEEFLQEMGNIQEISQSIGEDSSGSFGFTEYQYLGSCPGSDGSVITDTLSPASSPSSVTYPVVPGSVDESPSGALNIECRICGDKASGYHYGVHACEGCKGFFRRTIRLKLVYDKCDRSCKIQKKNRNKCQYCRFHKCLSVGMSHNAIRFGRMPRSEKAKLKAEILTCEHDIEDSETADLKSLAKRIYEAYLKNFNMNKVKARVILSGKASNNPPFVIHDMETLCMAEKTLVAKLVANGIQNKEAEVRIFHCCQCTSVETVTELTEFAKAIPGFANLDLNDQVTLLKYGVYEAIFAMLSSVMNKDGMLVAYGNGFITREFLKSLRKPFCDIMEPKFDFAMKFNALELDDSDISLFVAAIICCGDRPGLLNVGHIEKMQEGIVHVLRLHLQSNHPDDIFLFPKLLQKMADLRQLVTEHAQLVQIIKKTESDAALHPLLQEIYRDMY
Put plainly: (§1) Agonist activity at PPAR alpha in human HEK cells by transactivation assay. The class given is functional, cell-based. The settings on record: HEK293.

In series [2] the target is T2, Peroxisome proliferator-activated receptor alpha (Homo sapiens, UniProt Q07869).
T2 sequence (Q07869 whole entry): T1 sequence (whole entry)
Described as §1. It counts as functional, cell-based, HEK293.

Series [3] has as its target T1, Peroxisome proliferator-activated receptor alpha (Homo sapiens). Put plainly: Intrinsic activity at PPAR alpha in human HEK cells at 1 uM by transactivation assay. As to conditions: HEK293. The class given is cell-based.
Series [4] addresses T3, Peroxisome proliferator-activated receptor gamma (Homo sapiens, UniProt P37231).
T3 sequence (P37231 whole entry): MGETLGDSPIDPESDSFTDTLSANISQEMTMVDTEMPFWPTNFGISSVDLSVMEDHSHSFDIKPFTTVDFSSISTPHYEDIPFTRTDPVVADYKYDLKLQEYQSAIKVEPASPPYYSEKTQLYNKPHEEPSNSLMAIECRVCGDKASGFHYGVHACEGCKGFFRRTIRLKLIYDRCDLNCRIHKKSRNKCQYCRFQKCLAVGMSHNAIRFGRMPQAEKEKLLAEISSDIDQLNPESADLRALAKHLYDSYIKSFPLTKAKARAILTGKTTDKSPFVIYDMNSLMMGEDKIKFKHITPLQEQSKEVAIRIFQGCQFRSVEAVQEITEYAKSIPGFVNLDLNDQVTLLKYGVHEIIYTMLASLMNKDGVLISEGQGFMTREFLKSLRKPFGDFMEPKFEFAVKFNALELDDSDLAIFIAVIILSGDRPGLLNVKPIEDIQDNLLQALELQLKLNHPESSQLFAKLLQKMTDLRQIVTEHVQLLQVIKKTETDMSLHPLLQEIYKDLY
Nature of the series: Binding affinity at PPAR gamma receptor.

Series [5] can be described thus: Bile excretion of compound in bile duct-cannulated orally dosed cynomolgus monkey within 48 hrs. It counts as ADME, organism-based, Macaca fascicularis. As to conditions: po, read-out: Activity.
In series [6] the target is T2, Peroxisome proliferator-activated receptor alpha. Nature of the series: Binding affinity at PPAR alpha receptor.
A short description of series [7]: Bile excretion of compound in bile duct-cannulated orally dosed Sprague-Dawley rat within 24 hrs. The settings on record: po, read-out: Activity. It counts as ADME, organism-based.
Series [8] can be described thus: Cmax in Sprague-Dawley rat at 10 mg/kg, po after 96 hrs. It counts as ADME, organism-based. Further details: dose 10 mg/kg, route oral. As to conditions: in vivo.
Series [9] is described as follows: Tmax in Sprague-Dawley rat at 10 mg/kg, po after 96 hrs. The settings on record: in vivo. More on the design: dose 10 mg/kg, route oral. It counts as ADME, organism-based.
The nature of series [10]: AUC (0 to T) in Sprague-Dawley rat at 10 mg/kg, po after 96 hrs. The class given is ADME, organism-based. Further details: time < 96 hr, dose 10 mg/kg, route oral. The settings on record: plasma.
A short description of series [11]: Half life in Sprague-Dawley rat at 10 mg/kg, po after 96 hrs. The class given is ADME, organism-based. More on the design: dose 10 mg/kg, route oral. As to conditions: in vivo.
Series [12] in a line: Cmax in Beagle dog at 2 mg/kg, po after 12 hrs. The class given is ADME, organism-based, Canis lupus familiaris. More on the design: dose 2 mg/kg, route oral. The settings on record: in vivo.
Series [13] is described as follows: Tmax in Beagle dog at 2 mg/kg, po after 12 hrs. The class given is ADME, organism-based, Canis lupus familiaris. Further details: dose 2 mg/kg, route oral. As to conditions: in vivo.
Series [14] is described as follows: AUC (0 to T) in Beagle dog at 2 mg/kg, po after 12 hrs. It counts as ADME, organism-based, Canis lupus familiaris. Further details: time < 12 hr, dose 2 mg/kg, route oral. The settings on record: plasma.
Series [15] is described as follows: Half life in Beagle dog at 2 mg/kg, po after 12 hrs. It counts as ADME, organism-based, Canis lupus familiaris. More on the design: dose 2 mg/kg, route oral. The settings on record: in vivo.
Series [16] in a line: Cmax in cynomolgus monkey at 1.9 mg/kg, po after 144 hrs. The class given is ADME, organism-based, Macaca fascicularis. More on the design: dose 1.9 mg/kg, route oral. The settings on record: in vivo.
Series [17] can be described thus: Tmax in cynomolgus monkey at 1.9 mg/kg, po after 144 hrs. It counts as ADME, organism-based, Macaca fascicularis. Further details: dose 1.9 mg/kg, route oral. The settings on record: in vivo.
Series [18] is described as follows: AUC (0 to T) in cynomolgus monkey at 1.9 mg/kg, po after 144 hrs. The class given is ADME, organism-based, Macaca fascicularis. More on the design: time < 144 hr, dose 1.9 mg/kg, route oral. As to conditions: plasma.
Series [19] is described as follows: Half life in cynomolgus monkey at 1.9 mg/kg, po after 144 hrs. The class given is ADME, organism-based, Macaca fascicularis. More on the design: dose 1.9 mg/kg, route oral. The settings on record: in vivo.
Series [20] is described as follows: Cmax in human at 10 mg, po after 192 hrs. The settings on record: in vivo. It counts as ADME, organism-based. Further details: dose 10 mg, route oral.
The nature of series [21]: Tmax in human at 10 mg, po after 192 hrs. As to conditions: in vivo. It counts as ADME, organism-based.
Series [22] is described as follows: AUC (0 to T) in human at 10 mg, po after 192 hrs. The class given is ADME, organism-based. Further details: dose 10 mg, time < 192 hr, route oral. As to conditions: plasma.
Series [23] in a line: Half life in human at 10 mg, po after 192 hrs. It counts as ADME, organism-based. The settings on record: in vivo.

What is called EC50 is the midpoint of the concentration-response curve. In general, IC50 refers to the concentration needed to halve the response being measured. With `COc1ccc(OC(=O)N(CC(=O)O)Cc2ccc(OCCc3nc(-c4ccc(O)cc4)oc3C)cc2)cc1`, the %max in [1] turned out to be 93%. In [2], this compound showed an EC50 of 0.26 µM. The Intrinsic activity in [3] came to 78%. The IC50 amounted to 2.05 µM in [4] and 0.099 µM in [6]. Moreover, in series [5], the dose excreted at 48 h is less than 5%.

On to `O=C(O)CN(Cc1ccc(OCCc2nc(-c3ccccc3)oc2CO)cc1)C(=O)Oc1ccc(O)cc1`, for which the %max in [1] was determined as 69%. In addition, in series [2], the EC50 worked out at 18.1 µM. The Intrinsic activity in series [3] was found to be 2%. Also, the IC50 in [4] and in series [6] was greater than 15 µM each time. The dose excreted at 48 h in [5] was less than 5%.

Take `Cc1oc(-c2ccccc2)nc1CC(O)Oc1ccc(CN(CC(=O)O)C(=O)Oc2ccc(O)cc2)cc1` (configuration not stated): the dose excreted at 48 h in [5] was less than 5%.

In [1], `Cc1oc(-c2ccccc2)nc1CCOc1ccc(CN(CC(=O)O)C(=O)Oc2ccc(O)cc2)cc1` had a %max of 78%. In addition, the EC50 in series [2] was found to be 6.89 µM. Moreover, in [3], the Intrinsic activity was found to be 6%. The figures for the IC50 in [4] and in [6] were greater than 15 µM and 3.74 µM, respectively. Moreover, the dose excreted at 48 h in [5] is less than 5%. Further, the dose excreted at 24 h in series [7] is 11%.

`COc1ccc(OC(=O)N(CC(=O)O)Cc2ccc(OC(O)Cc3nc(-c4ccccc4)oc3CO)cc2)cc1` (configuration not stated): in series [5], the dose excreted at 48 h was less than 5%.

Take `Cc1oc(-c2ccccc2)nc1C(O)COc1ccc(CN(CC(=O)O)C(=O)Oc2ccc(O)cc2)cc1` (configuration not stated): the dose excreted at 48 h in [5] is less than 5%.

For `COc1ccc(OC(=O)N(CC(=O)O)Cc2ccc(OCC(O)c3nc(-c4ccccc4)oc3CO)cc2)cc1` (configuration not stated), the dose excreted at 48 h in [5] is less than 5%.

Turning to `COc1ccc(OC(=O)N(CC(=O)O)Cc2ccc(OCCc3nc(-c4ccc(O)cc4)oc3CO)cc2)cc1`, the dose excreted at 48 h in [5] is less than 5%.

Consider `Cc1oc(-c2ccc(O)cc2)nc1CCOc1ccc(CN(CC(=O)O)C(=O)Oc2ccc(O)cc2)cc1`, for which the dose excreted at 48 h in series [5] is less than 5%.

For the compound `O=C(O)CN(Cc1ccc(O)cc1)C(=O)Oc1ccc(O)cc1`, the dose excreted at 48 h in [5] is less than 5%.

Turning to `Cc1oc(-c2ccc(O[C@@H]3O[C@H](C(=O)O)[C@@H](O)[C@H](O)[C@H]3O)cc2)nc1CCOc1ccc(CN(CC(=O)O)C(=O)Oc2ccc(O)cc2)cc1`, the dose excreted at 48 h in series [5] is less than 5%.

`COc1ccc(OC(=O)N(CC(=O)O)Cc2ccc(OCCC(=O)N(C(C)=O)C(=O)c3ccccc3)cc2)cc1` gave an EC50 in [2] greater than 25 µM. In addition, the IC50 in series [4] and in [6] was greater than 15 µM in each case. In addition, in series [5], the dose excreted at 48 h was less than 5%.

As to `COc1ccc(OC(=O)N(CC(=O)O)Cc2ccc(OCC(O)c3nc(-c4ccccc4)oc3C)cc2)cc1` (configuration not stated), in series [5], the dose excreted at 48 h is less than 5%.

In turn, `COc1ccc(OC(=O)N(CC(=O)O)Cc2ccc(OCCC(=O)NC(=O)c3ccccc3)cc2)cc1` had an EC50 in [2] greater than 25 µM. In addition, the IC50 in series [4] and in [6] was greater than 15 µM each time. In addition, the dose excreted at 48 h in series [5] was less than 5%.

As to `COc1ccc(OC(=O)N(CC(=O)O)Cc2ccc(OC(O)Cc3nc(-c4ccc(O)cc4)oc3C)cc2)cc1` (configuration not stated), the dose excreted at 48 h in series [5] is less than 5%.

On to `COc1ccc(OC(=O)N(CC(=O)O)Cc2ccc(OCCc3nc(-c4ccccc4)oc3CO)cc2)cc1`, for which the %max in [1] is 88%. Moreover, in series [2], the EC50 was determined as 1.94 µM. Further, the Intrinsic activity in [3] was found to be 24%. The IC50 was greater than 15 µM in [4] and 3.09 µM in series [6]. Also, the dose excreted at 48 h in [5] was less than 5%.

As to `COc1ccc(OC(=O)N(CC(=O)O)Cc2ccc(O)cc2)cc1`, the EC50 in [2] was greater than 25 µM. In addition, the half-maximal inhibitory concentration (IC50) in series [4] and in series [6] was greater than 15 µM in each case. The dose excreted at 48 h in series [5] was less than 5%.

`COc1ccc(OC(=O)N(CC(=O)O)Cc2ccc(OCCc3nc(-c4ccccc4)oc3C(=O)O)cc2)cc1`: in series [5], the dose excreted at 48 h was less than 5%.

Turning to `COc1ccc(OC(=O)N(CC(=O)O)Cc2ccc(OCCc3nc(-c4ccccc4)oc3C)cc2)cc1`, the Intrinsic activity in [3] is 120%.

As usually defined, the Cmax is the highest concentration seen after dosing. Broadly, the Tmax is the time at which the peak concentration occurs. As a reminder, the AUC(0-t) is exposure summed from dosing to a finite time, without extrapolation to infinity. The half-life is the time in which the quantity being followed falls by half. `COc1ccc(OC(=O)N(CC(=O)O)Cc2ccc(OCCc3nc(-c4ccccc4)oc3C)cc2)cc1.Cl` [MURAGLITAZAR CHLORIDE] gave an EC50 in [2] of 0.035 µM. The Cmax was 12800 ng/mL in series [8], 800 ng/mL in [12], 6900 ng/mL in series [16] and 1800 ng/mL in series [20]. In addition, the time to peak (Tmax) was 0.5 h in series [9], 0.5 h in series [13], 1 h in series [17] and 1 h in series [21]. In addition, in [10], the AUC(0-t) at 96 h came out at 101000 ng·h/mL. For the same compound, the half-life in series [11] was 10.3 h; in series [15], 5.7 h; in [19], 18 h; in series [23] it was 35.1 h. The same compound yielded an AUC(0-t) at 12 h in series [14] of 1300 ng·h/mL. The same compound gave an AUC(0-t) at 144 h in series [18] of 41000 ng·h/mL. Also, in [22], the AUC(0-t) at 192 h amounted to 12000 ng·h/mL. This compound also had an IC50 in series [6] of 0.188 µM.
